Test [1] addresses Neuronal acetylcholine receptor; alpha4/beta2 (Rattus norvegicus, UniProt P09483+P12390). Kind of test: Displacement of [3H]cytisine from alpha-4-beta-2 ACHR in rat brain homogenate. The class given is tissue-based. For orientation: Displacement assays read how much labelled ligand stays bound in the presence of the test substance.
Test [2] concerns the target T1, Neuronal acetylcholine receptor; alpha4/beta2 (Homo sapiens, UniProt P17787+P43681). Nature of the test: Maximal agonist activity on human alpha-4-beta-2 ACHR expressed in HEK293 cells assessed as change in intracellular calcium concentration by FLIPR relative to nicotine. The class given is functional, cell-based. For orientation: Calcium flux is commonly read through the fluorescence of an indicator in the cells.

Test [3] deals with T1, Neuronal acetylcholine receptor; alpha4/beta2. Kind of test: Agonist activity at human alpha4beta2 ACHR expressed in HEK293 cells assessed as change in intracellular calcium concentration by FLIPR. The format is functional, cell-based.
Test [4] concerns the target T2, Neuronal acetylcholine receptor; alpha3/beta4 (Homo sapiens, UniProt P30926+P32297). Nature of the test: Agonist activity at human alpha-3-beta-4 ACHR expressed in HEK293 cells assessed as change in intracellular calcium concentration by FLIPR. The format is functional, cell-based.
Test [5] concerns the target T2, Neuronal acetylcholine receptor; alpha3/beta4. Kind of test: Maximal agonist activity at human alpha-3-beta-4 ACHR expressed in HEK293 cells assessed as change in intracellular calcium concentration by FLIPR relative to nicotine. The class given is functional, cell-based.
The subject of test [6] is Rattus norvegicus. Nature of the test: Activity in rat formalin model measured as reduction in flinches at 0.19 umol/kg, ip. The class given is functional. Also on record: scale not given: the % may be the effect or the level left.
Test [7] deals with Rattus norvegicus. Kind of test: Activity in rat formalin model measured as reduction in flinches at 19 umol/kg, ip. The class given is functional. Set-up: scale not given: the % may be the effect or the level left.
Test [8] relates to Rattus norvegicus. Nature of the test: Activity in rat formalin model measured as reduction in flinches at 6.2 umol/kg, ip. The class given is functional. Also on record: scale not given: the % may be the effect or the level left.
Test [9] deals with Rattus norvegicus. Nature of the test: Induction of behavioral side effects in rat formalin model upto 19 umol/kg, […]. The class given is functional, organism-based.
The species named for test [10] is Rattus norvegicus. Kind of test: Activity in rat formalin model measured as reduction in flinches. The class given is functional, organism-based.
The species named for another test is Homo sapiens. Kind of test: Selectivity for human alpha4beta2 ACHR over alpha-3-beta-4 ACHR. The format is functional.

The structures appear in SMILES notation. Calls of active or inactive are those of the source. The calls are words filed in the database; no cut-off is given here.

T2 sequence (P30926 whole entry): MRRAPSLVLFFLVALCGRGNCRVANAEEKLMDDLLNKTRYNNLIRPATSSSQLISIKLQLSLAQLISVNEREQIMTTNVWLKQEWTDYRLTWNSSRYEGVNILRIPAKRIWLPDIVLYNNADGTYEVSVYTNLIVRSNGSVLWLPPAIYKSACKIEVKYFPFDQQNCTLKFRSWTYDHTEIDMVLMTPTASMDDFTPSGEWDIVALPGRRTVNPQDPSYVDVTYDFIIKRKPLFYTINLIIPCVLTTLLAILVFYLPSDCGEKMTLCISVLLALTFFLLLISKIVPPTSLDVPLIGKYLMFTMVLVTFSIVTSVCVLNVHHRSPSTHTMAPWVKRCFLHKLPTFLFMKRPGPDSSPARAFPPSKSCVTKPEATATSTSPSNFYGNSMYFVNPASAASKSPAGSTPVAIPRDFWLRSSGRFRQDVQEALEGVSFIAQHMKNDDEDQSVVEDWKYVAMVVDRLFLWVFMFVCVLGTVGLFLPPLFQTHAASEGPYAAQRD
T2 sequence (P32297 whole entry): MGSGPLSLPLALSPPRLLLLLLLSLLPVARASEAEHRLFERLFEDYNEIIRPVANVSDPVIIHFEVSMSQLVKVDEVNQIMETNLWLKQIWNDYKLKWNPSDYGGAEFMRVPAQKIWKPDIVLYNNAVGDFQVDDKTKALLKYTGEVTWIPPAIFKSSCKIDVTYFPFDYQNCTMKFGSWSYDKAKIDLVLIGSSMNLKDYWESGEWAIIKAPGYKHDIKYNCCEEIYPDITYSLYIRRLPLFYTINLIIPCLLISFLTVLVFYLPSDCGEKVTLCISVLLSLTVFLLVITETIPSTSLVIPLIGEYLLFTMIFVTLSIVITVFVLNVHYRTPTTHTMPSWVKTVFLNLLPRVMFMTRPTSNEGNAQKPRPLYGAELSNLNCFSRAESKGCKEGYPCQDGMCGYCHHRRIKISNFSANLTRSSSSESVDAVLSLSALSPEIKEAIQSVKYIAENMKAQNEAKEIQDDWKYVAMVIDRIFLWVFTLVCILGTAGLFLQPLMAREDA
T1 sequence (P17787 whole entry): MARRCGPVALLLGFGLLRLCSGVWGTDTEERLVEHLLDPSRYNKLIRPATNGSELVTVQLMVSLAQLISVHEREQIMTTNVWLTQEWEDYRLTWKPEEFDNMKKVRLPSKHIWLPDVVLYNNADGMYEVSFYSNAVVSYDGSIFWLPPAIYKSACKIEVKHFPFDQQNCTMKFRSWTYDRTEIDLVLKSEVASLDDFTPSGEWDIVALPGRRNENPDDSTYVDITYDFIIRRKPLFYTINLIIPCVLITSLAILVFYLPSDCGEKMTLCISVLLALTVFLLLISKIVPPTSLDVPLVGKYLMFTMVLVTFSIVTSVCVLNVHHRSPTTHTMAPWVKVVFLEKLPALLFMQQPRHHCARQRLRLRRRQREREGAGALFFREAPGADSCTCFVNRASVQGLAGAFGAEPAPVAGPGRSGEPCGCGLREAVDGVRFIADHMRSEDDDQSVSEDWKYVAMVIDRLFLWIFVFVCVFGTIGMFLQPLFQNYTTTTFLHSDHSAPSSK
T1 sequence (P43681 whole entry): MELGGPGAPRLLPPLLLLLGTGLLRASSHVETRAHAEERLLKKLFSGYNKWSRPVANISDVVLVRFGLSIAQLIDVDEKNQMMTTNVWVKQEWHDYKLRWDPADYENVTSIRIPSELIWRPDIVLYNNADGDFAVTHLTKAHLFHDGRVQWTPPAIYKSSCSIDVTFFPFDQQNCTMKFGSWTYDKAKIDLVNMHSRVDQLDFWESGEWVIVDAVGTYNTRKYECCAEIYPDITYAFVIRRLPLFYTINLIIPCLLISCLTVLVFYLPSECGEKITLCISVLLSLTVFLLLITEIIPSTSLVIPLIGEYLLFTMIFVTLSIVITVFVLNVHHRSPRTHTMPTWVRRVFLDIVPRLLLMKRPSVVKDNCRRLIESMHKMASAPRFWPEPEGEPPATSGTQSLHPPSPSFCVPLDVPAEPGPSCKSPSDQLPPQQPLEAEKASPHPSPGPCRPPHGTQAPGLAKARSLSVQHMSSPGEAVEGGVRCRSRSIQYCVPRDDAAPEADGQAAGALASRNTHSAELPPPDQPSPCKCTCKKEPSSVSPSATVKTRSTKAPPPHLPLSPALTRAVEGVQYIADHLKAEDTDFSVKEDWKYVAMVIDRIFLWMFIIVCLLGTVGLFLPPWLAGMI
Chain of Neuronal acetylcholine receptor; alpha4/beta2 (Rattus norvegicus, UniProt P09483+P12390) (P09483 whole entry): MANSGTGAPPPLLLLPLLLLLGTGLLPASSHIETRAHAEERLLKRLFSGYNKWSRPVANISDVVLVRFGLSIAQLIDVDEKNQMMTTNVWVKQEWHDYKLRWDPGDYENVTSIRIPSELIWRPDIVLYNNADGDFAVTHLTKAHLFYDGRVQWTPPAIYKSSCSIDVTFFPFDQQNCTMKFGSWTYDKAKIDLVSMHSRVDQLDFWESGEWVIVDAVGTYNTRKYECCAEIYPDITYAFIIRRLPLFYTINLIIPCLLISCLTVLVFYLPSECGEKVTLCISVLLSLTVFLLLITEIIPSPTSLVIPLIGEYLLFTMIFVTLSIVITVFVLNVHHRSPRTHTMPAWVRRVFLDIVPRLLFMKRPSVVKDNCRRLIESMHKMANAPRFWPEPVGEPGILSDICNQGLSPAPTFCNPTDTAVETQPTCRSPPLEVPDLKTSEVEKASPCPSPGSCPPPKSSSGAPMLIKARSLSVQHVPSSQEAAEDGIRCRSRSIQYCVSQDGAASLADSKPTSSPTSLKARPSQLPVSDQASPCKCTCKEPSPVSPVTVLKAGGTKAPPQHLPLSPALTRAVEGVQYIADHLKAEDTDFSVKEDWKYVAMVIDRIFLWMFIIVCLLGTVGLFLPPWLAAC
Chain of Neuronal acetylcholine receptor; alpha4/beta2 (Rattus norvegicus, UniProt P09483+P12390) (P12390 whole entry): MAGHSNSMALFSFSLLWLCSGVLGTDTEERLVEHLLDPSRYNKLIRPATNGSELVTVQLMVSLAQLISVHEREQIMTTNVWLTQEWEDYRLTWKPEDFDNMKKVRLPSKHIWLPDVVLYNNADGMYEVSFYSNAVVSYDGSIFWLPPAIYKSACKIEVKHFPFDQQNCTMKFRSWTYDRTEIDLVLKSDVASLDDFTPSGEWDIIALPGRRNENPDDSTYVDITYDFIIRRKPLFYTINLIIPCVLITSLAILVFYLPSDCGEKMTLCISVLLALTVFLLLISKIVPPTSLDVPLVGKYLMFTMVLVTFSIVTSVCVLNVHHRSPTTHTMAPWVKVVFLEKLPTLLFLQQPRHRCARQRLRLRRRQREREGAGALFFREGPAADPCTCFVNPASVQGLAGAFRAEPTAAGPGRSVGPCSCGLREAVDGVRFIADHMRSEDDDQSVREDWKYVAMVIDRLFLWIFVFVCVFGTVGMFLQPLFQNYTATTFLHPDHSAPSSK

On to `Clc1ccc(N2C[C@@H]3CCNC[C@@H]32)cn1`, for which, in test [1], the affinity corresponds to a Ki of 0.12 nM. Also, the figures for the Activity (in [2]; in test [5]; with Rattus norvegicus [6]) were 94%, 129% and 50%, respectively. The results for the half-maximal effective concentration (EC50) in test [3] and in test [4] were 37.4 nM and 1390 nM, respectively.
For `Clc1cc(N2CC[C@@H]3CN[C@@H]3C2)cnc1Cl`, affinity in [1] was put at a Ki of 0.027 nM. The Activity in [2] came out at 79%; in test [5], 111%; with Rattus norvegicus [7], 55%. For the same compound, the figures for the EC50 in test [3] and in test [4] were 82 nM and 110 nM, respectively.
For `Brc1cc(N2CC[C@H]3CN[C@H]3C2)cnc1Br`, the affinity in test [1], expressed as Ki, was 0.014 nM. Moreover, the results for the Activity (in test [2]; in test [5]; with Rattus norvegicus [8]) were 209%, 117% and 99%, respectively. Moreover, the EC50 (commonly the concentration that produces a half-maximal response) in [3] turned out to be 7.8 nM; in [4] it was 8.2 nM. For the same compound, the outcome with Rattus norvegicus [9] was inactive.
On to `N#Cc1cncc(N2CC[C@H]3CN[C@H]3C2)c1`, for which, in test [1], the affinity, expressed as Ki, was 0.12 nM. Further, the Activity in [2] came to 112%; in [5], 127%; in the test on Rattus norvegicus [8] it was 80%. Besides, the 50% effective concentration (EC50) in test [3] is 1900 nM; in [4], 1000 nM.
`Cc1cncc(N2CC[C@@H]3CN[C@@H]3C2)c1`: in [1], the affinity corresponds to a Ki of 0.064 nM. The results for the Activity in test [2] and in [5] were 54% and 87%, respectively. For the same compound, the EC50 in test [3] amounted to 650 nM; in test [4], 1400 nM. The result in the test with Rattus norvegicus [9] was inactive.
Regarding `COc1cncc(N2CC[C@@H]3CN[C@@H]3C2)c1`, the Ki (commonly the equilibrium dissociation constant of an inhibitor or competing ligand from its target) in test [1] was found to be 0.18 nM. Also, the Activity in test [2] stood at 35%; in test [5], 86%. Moreover, the EC50 in test [3] is 2700 nM; in [4], 4500 nM. Also, the result in the test filed under Rattus norvegicus [10] was inactive.
Consider `N#Cc1cncc(N2CC[C@@H]3CN[C@@H]3C2)c1`, for which, in [1], the affinity corresponds to a Ki of 0.065 nM. Further, the results for the Activity in test [2] and in test [5] were 76% and 116%, respectively. The 50% effective concentration (EC50) came out at 1900 nM in test [3] and 490 nM in [4]. Moreover, in the test with Rattus norvegicus [7], the result was inactive.
With `Clc1ccc(N2CC[C@H]3CN[C@H]3C2)cn1`, the affinity in [1], expressed as Ki, was 0.019 nM. Further, the Activity came to 114% in test [2] and 151% in test [5]. Besides, the EC50 in test [3] came out at 13 nM; in test [4] it was 29 nM. The Ratio EC50 in the test listed under Homo sapiens was 2.
The compound `COc1cncc(N2CC[C@H]3CN[C@H]3C2)c1` showed a Ki in [1] of 0.038 nM. Further, the Activity is 178% in test [2], 103% in [5] and “Dose-dependent effect” in the test listed under Rattus norvegicus [10]. In addition, the EC50 in test [3] was 130 nM; in [4], 180 nM. Besides, in the test with Rattus norvegicus [9], the result was inactive.
The compound `Cc1cc(N2C[C@@H]3CCNC[C@@H]32)cnc1Cl` showed a Ki in test [1] of 0.043 nM. For the same compound, the Activity came to 103% in [2] and 91% in test [5]. Further, the EC50 in test [3] came out at 76.1 nM; in test [4] it was 1910 nM. Also, the outcome in the test with Rattus norvegicus [7] was inactive. In addition, the outcome in the test with Rattus norvegicus [9] was Active.
The compound `Cc1cc(N2C[C@H]3CCNC[C@H]32)cnc1Cl` yielded an inhibition constant (Ki) in test [1] of 0.24 nM. The Activity in test [2] was found to be 142%; in [5], 103%; in the test on Rattus norvegicus [7] it was 75%. Also, the figures for the EC50 in test [3] and in test [4] were 134 nM and 298 nM, respectively.
For the compound `Brc1cc(N2CC[C@@H]3CN[C@@H]3C2)cnc1Br`, the Ki in [1] was determined as 0.024 nM. Further, the Activity was determined as 86% in test [2], 100% in test [5] and 26% in the test with Rattus norvegicus [7]. Further, the EC50 in test [3] came to 76 nM; in test [4], 110 nM.
